BindingDB's records for PubMed 11454905 (Eli Lilly, 2001)
Residues, ends and D or L forms follow the SMILES beside them.

Molecular target: Metabotropic glutamate receptor 3 (Rattus norvegicus, UniProt P31422)
Sequence (P31422 whole entry): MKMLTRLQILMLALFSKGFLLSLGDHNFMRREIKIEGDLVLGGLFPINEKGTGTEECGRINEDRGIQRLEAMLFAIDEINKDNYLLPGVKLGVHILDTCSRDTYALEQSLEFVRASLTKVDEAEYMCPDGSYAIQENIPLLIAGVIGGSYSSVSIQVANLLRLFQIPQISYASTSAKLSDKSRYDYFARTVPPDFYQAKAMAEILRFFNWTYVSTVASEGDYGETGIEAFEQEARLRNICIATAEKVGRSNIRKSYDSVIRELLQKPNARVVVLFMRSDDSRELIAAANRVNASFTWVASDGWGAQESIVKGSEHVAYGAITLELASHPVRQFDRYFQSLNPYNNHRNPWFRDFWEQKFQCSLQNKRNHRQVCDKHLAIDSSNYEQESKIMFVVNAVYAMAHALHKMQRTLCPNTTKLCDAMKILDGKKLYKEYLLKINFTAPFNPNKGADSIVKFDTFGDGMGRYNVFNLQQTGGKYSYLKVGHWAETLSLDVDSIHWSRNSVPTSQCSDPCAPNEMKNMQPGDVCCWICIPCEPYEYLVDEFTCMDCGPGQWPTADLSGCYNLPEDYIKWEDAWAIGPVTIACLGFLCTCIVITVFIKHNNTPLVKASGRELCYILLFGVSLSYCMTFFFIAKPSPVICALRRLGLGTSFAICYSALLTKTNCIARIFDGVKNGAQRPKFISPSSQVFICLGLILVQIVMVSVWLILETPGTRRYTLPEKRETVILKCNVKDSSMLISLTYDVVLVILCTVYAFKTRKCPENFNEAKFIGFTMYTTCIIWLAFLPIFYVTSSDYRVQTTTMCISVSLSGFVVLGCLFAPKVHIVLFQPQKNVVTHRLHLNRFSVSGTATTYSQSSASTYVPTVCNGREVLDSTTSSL

| Compound | Ki |
| --- | --- |
| N[C@H](CP(=O)(O)O)C(=O)O [CAS_23052-80-4] | > 10 µM |
| N[C@H](C(=O)O)C1[C@@H](C(=O)O)[C@@H]1C(=O)O (some centres not stated) [DCG-IV] | 0.061 µM |
| N[C@@]1(C(=O)O)CC[C@H]2[C@H](C(=O)O)[C@H]21 [(2S,6S)-2-Amino-bicyclo[3.1.0]hexane-2,6-dicarboxylic acid] | > 10 µM |
| C[C@@](N)(C(=O)O)c1ccc(C(=O)O)cc1 (racemic) | > 10 µM |
| O=C(O)[C@H]1[C@H]2CN[C@H](C(=O)O)[C@H]21 | > 10 µM |
| N[C@@]1(C(=O)O)CC[C@H](CC(=O)O)C1 [(1S,3S)-HOMO-ACPD] | 8.69 µM |
| N[C@@H](CC(=O)O)C(=O)O [L-Aspartic acid, 2] | > 10 µM |
| N[C@@]1(C(=O)O)CC[C@H](C(=O)O)C1 [1S, 3R-ACPD] | > 10 µM |
| NC(CCC(=O)O)C(=O)O (configuration not stated) [glutamic acid dianion] | 0.09 µM |
| CC(N)(C(=O)O)c1ccc(P(=O)(O)O)cc1 (configuration not stated) | > 10 µM |
| N[C@@H](CCC(=O)O)C(=O)O [L-Glutamic acid] | > 10 µM |
| N[C@@H](CCP(=O)(O)O)C(=O)O | > 10 µM |
| N[C@@H](Cn1oc(=O)[nH]c1=O)C(=O)O [2-amino-3-(3,5-dioxo[1,2,4]oxadiazolidin-2-yl)propionic acid] | > 10 µM |

The next lines start with the values.

| Ki | Compound |
| --- | --- |
| 0.334 µM | N[C@H](C(=O)O)[C@H]1C[C@H]1C(=O)O [L-CCG-IV] |
| 2.01 µM | N[C@@H](C[C@@H](CCCC(c1ccccc1)c1ccccc1)C(=O)O)C(=O)O [LY307452] |
| 2.73 µM | N[C@@]1(C(=O)O)CN[C@@H](C(=O)O)C1 [2R, 4R-APDC] |
| > 10 µM | O=C(O)[C@H]1CN[C@H](C(=O)O)C1 [t-PDC] |
| > 10 µM | CC(=O)N[C@@H](CC(=O)O)C(=O)N[C@@H](CCC(=O)O)C(=O)O [[3H]NAAG] (Ac-Asp-Glu-OH) |
| 0.0008 µM | NC(Cn1cnc2c(=O)[nH]c(=O)[nH]c21)(C(=O)O)C1CC1C(=O)O (configuration not stated) [CAS_5311260] |
| > 10 µM | NC(C(=O)O)c1ccc(P(=O)(O)O)cc1 (configuration not stated) [Amino-(4-phosphono-phenyl)-acetic acid(RS-PPG)] |
| 0.0065 µM | N[C@@]1(C(=O)O)CO[C@H]2[C@H](C(=O)O)[C@H]21 [LY379268] |
| > 10 µM | Nc1nc(O)c2ncn(COC(CO)CO)c2n1 [CAS_82410-32-0] |
